Data: patent publication US10167262B2, “Herbicidal substituted 3-arylpyrazoles” (FMC CORPORATION, priority 2014, dated 2019)

Tests used:
Assay in all cases: Test C pre-/postemergence greenhouse test, plant response rating 0-100;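 on Plant response rating (0 to 100), Blackgrass: 0 is no effect and 100 is complete control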;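 on Plant response rating (0 to 100), Ragweed: 0 is no effect and 100 is complete control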;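 on Plant response rating, Blackgrass: 0 is no effect and 100 is complete control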;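 on Plant response rating, Ragweed: 0 is no effect and 100 is complete control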
Format in all cases: in vivo
[1] = tested on: Italian ryegrass (Lolium multiflorum); settings: Postemergence
Summary of the method: (§1)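 After treatment, pots stay in the greenhouse 13–15 days before each species is compared with untreated controls and given a 0–100 visual score. Preemergence seeds are in loam blended with sand; postemergence plants, 1–4 leaves, are in peat-based medium.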

[2] = tested on: blackgrass (Alopecurus myosuroides); settings: Postemergence; for Plant response rating, Blackgrass: scale 0 to 100;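 on all read-outs here: 0 is no effect and 100 is complete control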
Summary of the method: as §1

corn (Zea mays) = settings: Postemergence
Summary of the method: as §1

[3] = tested on: galium (catchweed bedstraw, Galium aparine); settings: Postemergence
Summary of the method: as §1

[4] = tested on: lambsquarters (Chenopodium album); settings: Postemergence
Summary of the method: as §1

[5] = tested on: large (Lg) crabgrass (Digitaria sanguinalis); settings: Postemergence
Summary of the method: as §1

[6] = tested on: morningglory (Ipomoea coccinea); settings: Postemergence
Summary of the method: as §1

[7] = tested on: pigweed (Amaranthus retroflexus); settings: Postemergence
Summary of the method: as §1

[8] = tested on: ragweed (common ragweed, Ambrosia elatior); settings: Postemergence;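 further: 0 is no effect and 100 is complete control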
Summary of the method: as §1

soybean (Glycine max) = settings: Postemergence
Summary of the method: as §1

[9] = tested on: velvetleaf (Abutilon theophrasti); settings: Postemergence
Summary of the method: as §1

[10] = tested on: yellow nutsedge (Cyperus esculentus); settings: Postemergence
Summary of the method: as §1

O=C(c1ccccc1)c1cn(S(=O)(=O)CCl)nc1-c1cc(Cl)cc(Cl)c1 [Compound 1]
Plant response rating (0 to 100), Ryegrass, Italian ([1]; 62 g ai/ha): 0 | Plant response rating (0 to 100), Ryegrass, Italian ([1]; 125 g ai/ha): 0 | Plant response rating, Ryegrass, Italian ([1]; 250 g ai/ha, scale 0 to 100): 0 | Plant response rating (0 to 100), Blackgrass ([2]; 31 g ai/ha): 0 | Plant response rating (0 to 100), Blackgrass ([2]; 62 g ai/ha): 0 | Plant response rating, Blackgrass ([2]; 125 g ai/ha): 0 | Plant response rating, Blackgrass ([2]; 250 g ai/ha): 0 | Plant response rating (0 to 100), Corn (corn (Zea mays); 31 g ai/ha): 0 | Plant response rating (0 to 100), Corn (corn (Zea mays); 62 g ai/ha): 0 | Plant response rating (0 to 100), Corn (corn (Zea mays); 125 g ai/ha): 0 | Plant response rating, Corn (corn (Zea mays); 250 g ai/ha, scale 0 to 100): 0 | Plant response rating (0 to 100), Galium ([3]; 31 g ai/ha): 0 | Plant response rating (0 to 100), Galium ([3]; 62 g ai/ha): 0 | Plant response rating (0 to 100), Galium ([3]; 125 g ai/ha): 0 | Plant response rating, Galium ([3]; 250 g ai/ha, scale 0 to 100): 20 | Plant response rating (0 to 100), Lambsquarters ([4]; 62 g ai/ha): 70 | Plant response rating (0 to 100), Lambsquarters ([4]; 125 g ai/ha): 85 | Plant response rating, Lambsquarters ([4]; 250 g ai/ha, scale 0 to 100): 85 | Plant response rating (0 to 100), Crabgrass, Large ([5]; 31 g ai/ha): 0 | Plant response rating (0 to 100), Crabgrass, Large ([5]; 62 g ai/ha): 0 | Plant response rating (0 to 100), Crabgrass, Large ([5]; 125 g ai/ha): 0 | Plant response rating, Crabgrass, Large ([5]; 250 g ai/ha, scale 0 to 100): 0 | Plant response rating (0 to 100), Morningglory ([6]; 62 g ai/ha): 0 | Plant response rating (0 to 100), Morningglory ([6]; 125 g ai/ha): 0 | Plant response rating, Morningglory ([6]; 250 g ai/ha, scale 0 to 100): 0 | Plant response rating (0 to 100), Pigweed ([7]; 62 g ai/ha): 98 | Plant response rating (0 to 100), Pigweed ([7]; 125 g ai/ha): 100 | Plant response rating, Pigweed ([7]; 250 g ai/ha, scale 0 to 100): 100 | Plant response rating (0 to 100), Ragweed ([8]; 62 g ai/ha): 40 | Plant response rating (0 to 100), Ragweed ([8]; 125 g ai/ha): 50 | Plant response rating, Ragweed ([8]; 250 g ai/ha, scale 0 to 100): 65 | Plant response rating (0 to 100), Soybean (soybean (Glycine max); 62 g ai/ha): 0 | Plant response rating (0 to 100), Soybean (soybean (Glycine max); 125 g ai/ha): 0 | Plant response rating, Soybean (soybean (Glycine max); 250 g ai/ha, scale 0 to 100): 0 | Plant response rating (0 to 100), Velvetleaf ([9]; 62 g ai/ha): 70 | Plant response rating (0 to 100), Velvetleaf ([9]; 125 g ai/ha): 75 | Plant response rating, Velvetleaf ([9]; 250 g ai/ha, scale 0 to 100): 80 | Plant response rating (0 to 100), Nutsedge, Yellow ([10]; 62 g ai/ha): 0 | Plant response rating (0 to 100), Nutsedge, Yellow ([10]; 125 g ai/ha): 0 | Plant response rating, Nutsedge, Yellow ([10]; 250 g ai/ha, scale 0 to 100): 10
